Measured values: patent US11912691B2, “Tocotrienols derivates, methods and uses thereof” (GLOBAL SCIENTIFIC, priority 2020, dated 2024)
“Also recorded” adds a separate entry of the source. Read-outs that look alike come from different tables or passages of the source. One block for each molecule: values may come before it.

Legend:
[1] = Chemical stability in a cosmetic formulation, accelerated aging test (45° C., 3 months); conditions: for % of the Compound after 3 Months: 0.1% m/m in cosmetic formulation, oven at 45° C., HPLC; for Stability in the cosmetic formulation (in words): 45° C., ferulyl compound also in cold storage; for % of the Compound after 3 Months / Stability in the cosmetic formulation (in words): 3 months
Procedure: In an embodiment, the chemical stability of the modified molecules was evaluated in accelerated degradation tests. For this purpose, the test molecules were formulated in a cosmetic relevant formulation and its degradations were assessed for a period of 3 months.
In an embodiment, the cosmetic formulation may comprise water, jojoba seed oil, butylene glycol, squalane, sodium hyaluronate, cetearyl alcohol and a carbomer.
In an embodiment, test molecules were added to the cosmetic formulation at 0.1% m/m level, thoroughly homogenized to ensure uniform dispersion and stored in closed glass bottles in an oven at 45° C. for 3 months. In order to evaluate homogeneity and stability, 3 samples were collected from random positions immediately after preparation and at each time point evaluated. The quantification of the test molecules was performed by HPLC.
In an embodiment, the preparation of the mixtures for evaluation of the stability was performed according to the following experimental protocol. The mass of compound was weighed and dissolved in 2-(2-ethoxyethoxy)ethanol (also weighed) and added to a known mass of moisturizer product. The mixture was homogenized, and 3 samples were collected to confirm homogenous distribution and initial concentration of modified molecules. The mixtures were then stored in an oven at 45° C. for 3 months (Table IV).
In an embodiment, the stability of the test molecules in the cosmetic formulation was determined. The test mixtures were sampled in triplicate from random zones. The samples were prepared for analysis by solubilizing them in acetonitrile and the quantification of the modified and non-modified tocopherol and tocotrienol molecules was performed by HPLC. The % of the initial compounds is described in Table IV.

[2] = for Rank of the nicotinic acid level in the permeate solutions: within molecules without a linker / within molecules with a linker
Procedure: In an embodiment, the penetration into human skin and the conversion of the modified tocotrienols and modified α-tocotrienols with linkers molecules in the human skin were evaluated by permeation experiments using Franz diffusion cells. The conversion profile was evaluated and quantified by measuring nicotinic acid or nicotinyl alcohol in the permeate solutions.
In an embodiment, the skin permeation of the modified compounds was assessed. The permeation tests were performed with full thickness human skin. These samples were obtained at a local hospital, from healthy donors undergoing cosmetic surgery. The excised skin was stored in a PBS solution containing 10% antibiotic and maintained at 4° C., until further processing in the laboratory. When the skin sample was received, the underlying fat tissue was removed and discarded. The remaining skin (dermis and epidermis layers) was cut into pieces of approximately 1.5×1.5 cm. When the permeation experiments were executed with fresh skin, the samples were immediately used. Otherwise, the pre-cut skin samples were frozen at −80° C. and stored for further use. When reclaiming the frozen skin samples, the samples were removed from storage and thawed to room temperature for 1 hour before further manipulation.
The permeation experiments were performed in Franz diffusion cells. These diffusion cells are constituted by a donor compartment, where the formulation containing the permeate molecule is placed, and a receptor compartment containing the receptor fluid where the permeate molecule is collected and accumulated in time. The skin sample is placed between the donor and receptor compartments and is also equipped with a sampling access that allows for the collection of samples (a certain volume of the receptor fluid) without requiring the disassembly of the cell and therefore allows for the permeation experiment to continue (FIG. 3).
At the start of the experiment, the receptor compartment is filled with the receptor fluid, the skin sample is placed in place with care so as to not form air bubbles underneath. The donor receptor is positioned in place and clamped. The assembly is then placed in the thermostatic (37° C.) bath for 30 min to allow temperature equilibration. After the equilibration time, the level of the receptor fluid is adjusted as necessary. The receptor compartment is equipped with a magnetic mixer, ensuring the solution homogeneity during the course of the permeation experiment.
In an embodiment, the permeate solutions are monitored for the presence of nicotinic acid released from the modified tocopherol and tocotrienols molecules. The amount of nicotinic acid is quantified by HPLC using an ion pairing method. The concentration of nicotinic acid is calculated from a standard calibration curve of known nicotinic acid concentration solutions measured in the same conditions. The HPLC analysis is performed on a Knauer chromatograph consisting of 3 modules: Smartline manager 5000, Smartline pump 1000 and Smartline UV Detector 2600. The UV detector is fitted with a photodiode array (PDA) which allows for the continuous monitoring from 190-450 nm. The online chromatograms are monitored at 254 nm. The eluent comprises an ion-pairing eluent (50 mM of tetrabutylammonium hydroxide (TBAOH), pH corrected to 7.4 with hydrogenphosphate dibasic ([…])) containing 10% of acetonitrile at a flow of 1 mL/min and the column used is an Atlantis T3 4.6×250 mm (with guard column of same type 4.6×20 mm) at 30° C.
In an embodiment, the skin permeation experiments are performed with formulations of different concentrations of modified tocotrienol and tocopherol molecules. The modified molecules are dissolved at concentrations of 5% and 10% m/m in a mixture of equal volumes of 2-(2-ethoxyethoxy)ethanol and propylene glycol and 150 μl of these solutions are applied on the skin samples.

[3] = modified α-tocotrienols with linkers, donor solution 10% m/m, 24 hours
[4] = modified α-tocotrienols with linkers, donor solution 10% m/m, 48 hours
[5] = donor solution 5% m/m, 48 hours, human skin, Franz cell
[6] = donor solution 10% m/m, 48 hours, human skin, Franz cell

% of the Compound after 3 Months [1]: 44%
SMILES: Cc1c(C)c2c(c(C)c1O)CC[C@@](C)(CCC[C@H](C)CCC[C@H](C)CCCC(C)C)O2 [α-tocopherol, reference compound]

% of the Compound after 3 Months [1]: ≥95%
SMILES: Cc1c(C)c2c(c(C)c1OC(=O)c1cccnc1)CC[C@@](C)(CCC[C@H](C)CCC[C@H](C)CCCC(C)C)O2 [α-tocopheryl nicotinate, reference compound]

% of the Compound after 3 Months [1]: 53%
SMILES: CC(C)=CCC/C(C)=C/CC/C(C)=C/CC[C@]1(C)CCc2c(C)c(O)c(C)c(C)c2O1 [α-tocotrienol, reference compound]

Concentration of nicotinic acid in the permeate solution [2, 3]: 1190 ng/mL | Concentration of nicotinic acid in the permeate solution [2, 4]: 2960 ng/mL | % of the Compound after 3 Months [1]: 0%
SMILES: COc1cc(/C=C/C(=O)Oc2c(C)c(C)c3c(c2C)CCC(C)(CC/C=C(\C)CC/C=C(\C)CCC=C(C)C)O3)ccc1OC(=O)c1cccnc1 (stereo not drawn) [α-tocotrienyl ferulyl nicotinate]
Stability in the cosmetic formulation (in words) [1]: unstable even in cold storage conditions; also recorded: not stable

Concentration of nicotinic acid in the permeate solution [2, 3]: 180 ng/mL | Concentration of nicotinic acid in the permeate solution [2, 4]: 380 ng/mL | % of the Compound after 3 Months [1]: ≥95% | Stability in the cosmetic formulation (in words) [1]: excellent stability
SMILES: CC(C)=CCC/C(C)=C/CC/C(C)=C/CCC1(C)CCc2c(C)c(OC(=O)CNC(=O)c3cccnc3)c(C)c(C)c2O1 (stereo not drawn) [α-tocotrienyl glycinyl nicotinate]

Rate of conversion into the parent molecules relative to the other modified tocotrienols ([2]; human skin): higher rate | Concentration of nicotinic acid in the permeate solution [2, 3]: 3020 ng/mL | Concentration of nicotinic acid in the permeate solution [2, 4]: 8180 ng/mL | Rank of the nicotinic acid level in the permeate solutions [2]: highest level | % of the Compound after 3 Months [1]: ≥95% | Stability in the cosmetic formulation (in words) [1]: excellent stability
SMILES: CC(C)=CCC/C(C)=C/CC/C(C)=C/CCC1(C)CCc2c(C)c(OC(=O)COC(=O)c3cccnc3)c(C)c(C)c2O1 (stereo not drawn) [α-tocotrienyl glycolyl nicotinate]

Concentration of nicotinic acid in the permeate solution ([2]; donor solution 5% m/m, 24 hours, human skin, Franz cell): 320 ng/mL | Concentration of nicotinic acid in the permeate solution ([2]; donor solution 5% m/m, 33 hours, human skin, Franz cell): 540 ng/mL | Concentration of nicotinic acid in the permeate solution [2, 5]: 890 ng/mL | Concentration of nicotinic acid in the permeate solution [2, 6]: 2830 ng/mL | Rate of conversion into the parent molecules relative to the other modified tocotrienols ([2]; human skin): higher rate | Release of nicotinic acid relative to α-tocopheryl nicotinate ([2]; human skin, Franz cell): faster | Release of nicotinic acid relative to γ-tocotrienyl nicotinate or δ-tocotrienyl nicotinate ([2]; human skin, Franz cell): three times faster | Rank of the nicotinic acid level in the permeate solutions [2]: highest level | % of the Compound after 3 Months [1]: ≥95%
SMILES: CC(C)=CCC/C(C)=C/CC/C(C)=C/CCC1(C)CCc2c(C)c(OC(=O)c3cccnc3)c(C)c(C)c2O1 (stereo not drawn) [α-tocotrienyl nicotinate]

Remaining fraction of the initial mass after 3 months of accelerated aging [1]: > 95% | % of the Compound after 3 Months [1]: ≥95%
SMILES: CC(C)=CCCC(C)=CCCC(C)=CCCC1(C)CCc2c(C)c(OC(=O)CCC(=O)OCc3cccnc3)c(C)c(C)c2O1 (stereo not drawn) [α-tocotrienyl nicotinyl succinate]

SMILES: CC(C)=CCC/C(C)=C/CC/C(C)=C/CC[C@]1(C)CCc2cc(O)c(C)c(C)c2O1 [γ-tocotrienol, reference compound]
% of the Compound after 3 Months [1]: 20%

Concentration of nicotinic acid in the permeate solution [2, 5]: 90 ng/mL | Concentration of nicotinic acid in the permeate solution [2, 6]: 700 ng/mL | % of the Compound after 3 Months [1]: ≥95%
SMILES: CC(C)=CCC/C(C)=C/CC/C(C)=C/CCC1(C)CCc2cc(OC(=O)c3cccnc3)c(C)c(C)c2O1 (stereo not shown) [γ-tocotrienyl nicotinate]

% of the Compound after 3 Months [1]: 57%
SMILES: CC(C)=CCC/C(C)=C/CC/C(C)=C/CC[C@]1(C)CCc2cc(O)cc(C)c2O1 [δ-tocotrienol, reference compound]

% of the Compound after 3 Months [1]: ≥95%
SMILES: CC(C)=CCCC(C)=CCCC(C)=CCCC1(C)CCc2cc(OC(=O)c3cccnc3)cc(C)c2O1 (stereo not shown) [δ-tocotrienyl nicotinate]
